Data from patent US20240228491A1, “METHIONINE ADENOSYLTRANSFERASE INHIBITOR, PREPARATION METHOD THEREFOR AND APPLICATION THEREOF” (SCINNOHUB PHARMACEUTICAL CO., LTD., priority 2021, published 2024).

Legend:
HCT116 MTAP-/- cells = assay: Activity test of HCT116 MTAP gene homozygous deletion cells (CellTiter-Glo); format: cell-based; details: Homo sapiens, HCT-116, 120 h incubation, read-out: HCT116 MTAP-/- Cell IC50
Experimental: On day 1, cell seeding: after digestion of the cells with trypsin, the cells were resuspended to the desired density with the complete medium (RPMI-1640 supplemented with 10% FBS; the brand of FBS is EXCELL, Cat. No. FND500; the brand of RPMI-1640 is ATCC, Cat. No. 30-2001), mixed evenly, and added into the 96-well plate at 100 μL/well with a cell density of 1000-3000 cells per well. The plate was put back to the incubator for the adherent growth of cells. On day 2, the addition of the compounds to be tested: before the addition of the compounds, the cells were starved with serum-free medium for 4 h, then the complete medium containing the corresponding concentration of compounds was added thereto, and the cells were incubated at 37° C., 5% CO2 for 120 h. On day 7, the cell culture plates were taken out from incubator and equilibrated to room temperature. 50 μL of CellTiter-Glo (Promega Company, Cat. No. G7571) reagent was added per well, and the cells were fully lysed by shaking at room temperature for 2 min, and then incubated for another 60 min to detect the fluorescence intensity. Calculation formula:
(§1) % Inhibition=100−(signal of the well with the compound to be tested−signal of the well with only medium and free of cells)/(signal of the well with cells but without addition of the compound−signal of the well with only medium and free of cells)×100.
The fitting dose-effect curve of the analysis software GraphPad Prism 5 was used to give IC50 values of the individual compounds against cellular activity.

DOHH-2 cells = assay: Inhibitory activity test of DOHH-2 cells; format: cell-based; details: Homo sapiens, 120 h incubation, CellTiter-Glo, read-out: DOHH-2 cell inhibitory activity IC50
Experimental: On day 1, cell seeding: cells were resuspended to the desired density with DMEM complete medium (Gibico, Cat. No. 10569010) supplemented with 10% FBS (Gibco, 10099141C), mixed evenly, and added into the 384-well plate at 30 μL/well with a cell density of 800/well. The compounds to be tested were added as follows: 30 nL of DMSO solution containing the compound (the concentration of the compound in which was formulated as: 3-fold gradient dilution from 10 mM, 10 concentration points in total) was added, incubated for 120 h at 37° C., 5% CO2. On day 6, the cells treated with compounds were removed and equilibrated to room temperature, 30 μL of CellTiter-Glo (Promega company, Cat. No. G7573) reagent was added per well, and the cells were fully lysed by shaking at room temperature, and then incubated in dark at 37° C., 5% CO2 for 30 min, to detect the fluorescence intensity.
% Inhibition=100−(signal of the well with the compound to be tested−signal of the well with only medium and free of cells)/(signal of the well with cells but without the addition of the compound−signal of the well with only medium and free of cells)×100.
(§2) The log value of concentration was used as the X-axis and % Inhibition was used as the Y-axis, so as to fit the dose-effect curve and calculate the IC50 value using nonlinear regression (dose response−variable slope) in the analysis software GraphPad Prism 8.

KP-4 cells = assay: Inhibitory activity test of KP-4 cells; format: cell-based; details: Homo sapiens, 144 h incubation, read-out: KP-4 cell inhibitory activity IC50
Experimental: On day 1, cell seeding: after digestion of the cells with trypsin, the cells were resuspended to 1*10^4/mL with RPMI1640 complete medium (HyClone Company, Cat. No. SH30809.01) supplemented with 10% FBS (Gibco, 10099141C), mixed evenly, and added into the 96-well plate at 100 μL/well. The plate was put back to the incubator for the adherent growth of cells. On day 2, the addition of the compounds to be tested: 100 μL of the complete medium containing the compounds (the concentration of the compound in the medium was formulated as follows: 3-fold gradient dilution from 60 μM, 10 concentration gradients in total) was added, incubated for 144 hours at 37° C., 5% CO2. On day 8, the cell culture plates were taken out from incubator and equilibrated to room temperature, excess medium was pipetted from the wells so that 50 μL of supernatant was retained, and 50 μL of CellCounting-Lite 2.0 (Nanjing Vazyme Biotech Co., Ltd., Cat. No. DD1101) reagent was added per well, and the cells were fully lysed by shaking at room temperature for 10 min, and incubated for 5 min to detect the fluorescence intensity.
as §1, §2

MAT2a = MAT2a (Homo sapiens (Human), UniProt P31153); assay: MAT2a enzymatic activity test (colorimetric assay); format: biochemical; details: OD620, 150 min reaction, read-out: IC50 against MAT2a
Chain of MAT2a (P31153 whole entry): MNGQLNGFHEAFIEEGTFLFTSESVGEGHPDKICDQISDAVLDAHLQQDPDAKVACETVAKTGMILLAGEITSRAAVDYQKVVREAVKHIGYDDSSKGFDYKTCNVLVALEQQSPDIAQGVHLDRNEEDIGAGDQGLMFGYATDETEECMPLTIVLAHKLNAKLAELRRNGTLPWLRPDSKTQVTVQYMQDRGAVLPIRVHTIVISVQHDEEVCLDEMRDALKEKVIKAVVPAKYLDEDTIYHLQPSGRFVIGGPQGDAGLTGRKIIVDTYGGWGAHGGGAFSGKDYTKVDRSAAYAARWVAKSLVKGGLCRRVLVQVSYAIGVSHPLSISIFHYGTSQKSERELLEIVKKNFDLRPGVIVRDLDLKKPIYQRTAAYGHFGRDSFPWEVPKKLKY
Experimental: The Colorimetric assay method was used to detect the IC50 value of the tested compounds on MAT2a.
The specific steps were as follows: The compounds having the test starling concentration of 1 μM or 10 μM were diluted into 10 concentration points in a 3-fold gradient. 250 nL of the solutions of the compounds to be tested with 10 different concentrations were taken and added into a 384 well plate for later use. 20 μg/mL of MAT2a enzyme solution was prepared with Assay buffer (50 mM Tris, 50 mM KCl, 10 mM MgCl2, 0.05% polyoxyethylene lauryl ether, pH 8.0). 15 μL of the MAT2a enzyme solution at 20 μg/mL was add into the wells of the compounds to be tested at different concentrations; and 15 μL of Assay buffer was added into the negative control well. An incubation was carried out for 15 minutes after shaking for mixing well. A mixed substrate solution (comprising 400 μM ATP and 600 μM L-Methionine) was prepared with Assay buffer. 10 μL of the mixed substrate solution was added to the positive control well, the compound to be tested well, and the negative control well, respectively, and the reaction began, for a reaction time of 150 min. Then, 50 μL of the reaction stop solution (BIOMOL Green™ Reagent Enzo lifesciences, Cargo No. BML-AK111-1000) was added to stop the reaction, followed by being centrifuged at 1000 rpm for 60 s and then being incubated for 15 min. OD620 was read and data were processed.
By using the log value of the concentration as the X-axis and the inhibition % as the Y-axis, the IC50 value of each compound against enzyme activity was obtained through employing the log(inhibitor) vs. response-Variable slope fitting dose-effect curve of the analysis software GraphPad Prism 5.

| Structure (SMILES) | IC50 (HCT116 MTAP-/- cells) | IC50 (DOHH-2 cells) | IC50 (KP-4 cells) | IC50 (MAT2a) |
| --- | --- | --- | --- | --- |
| COc1ccc(-c2c(N)c3ccc(C(F)(F)F)nc3n(-c3ccc(Cl)cc3)c2=O)cn1 [Example 20] | 24.5 nM | 48 nM | 650 nM | 11.5 nM |
| Nc1c(-c2ccc3ncsc3c2)c(=O)n(-c2ccc(Cl)cc2)c2nc(C(F)(F)F)ccc12 [Example 21] | 22.9 nM | 507 nM | 270 nM | 16.2 nM |
| Cn1cc2cc(-c3c(N)c4ccc(C(F)(F)F)nc4n(-c4ccc(Cl)cc4)c3=O)ccc2n1 [Example 25] | 13 nM | 507 nM | 1220 nM | 13.3 nM |
| Nc1c(-c2ccco2)c(=O)n(-c2ccc(Cl)cc2)c2nc(C(F)(F)F)ccc12 [Example 30, 4-amino-1-(4-chlorophenyl)-3-(furan-2-yl)-7-(trifluoromethyl)-1,8-naphthyridin-2(1H)-one] | 22.3 nM |  | 550 nM | 13.4 nM |
| Cc1ccc(-n2c(=O)c(-c3ccco3)c(N)c3ccc(C(F)(F)F)nc32)cc1 [Example 31] | 13.4 nM | 430 nM |  | 15.4 nM |
| Nc1c(-c2ccc(F)cc2)c(=O)n(-c2ccc(Cl)cc2)c2nc(C(F)(F)F)ccc12 [Example 42] | 8.38 nM |  | 480 nM | 15 nM |
| Cn1cc(-c2c(N)c3ccc(C(F)(F)F)nc3n(-c3ccc(Cl)cc3)c2=O)ccc1=O [Example 44] | 18.6 nM | 495 nM | 490 nM | 13.4 nM |
| Nc1c(-c2ccc3ncccc3c2)c(=O)n(-c2ccc(Cl)cc2)c2nc(C(F)(F)F)ccc12 [Example 45] | 6.37 nM |  | 190 nM | 14.8 nM |
| Nc1c(-c2ccc3ncncc3c2)c(=O)n(-c2ccc(Cl)cc2)c2nc(C(F)(F)F)ccc12 [Example 46] | 20.2 nM | 251 nM | 180 nM | 15.1 nM |
| COCCn1ncc2cc(-c3c(N)c4ccc(C(F)(F)F)nc4n(-c4ccc(Cl)cc4)c3=O)ccc21 [Example 47] | 15.2 nM | 559 nM | 550 nM | 13.6 nM |
| COCCn1cc2cc(-c3c(N)c4ccc(C(F)(F)F)nc4n(-c4ccc(Cl)cc4)c3=O)ccc2n1 [Example 48] | 13.3 nM | 518 nM | 170 nM | 16.1 nM |
| Nc1c(-c2ccc3c(c2)OCCO3)c(=O)n(-c2ccc(Cl)cc2)c2nc(C(F)(F)F)ccc12 [Example 53] | 21.2 nM |  | 240 nM | 14.4 nM |
| Nc1c(-c2ccc3nnccc3c2)c(=O)n(-c2ccc(Cl)cc2)c2nc(C(F)(F)F)ccc12 [Example 55] | 23.3 nM |  | 500 nM | 16.3 nM |
| COc1cc(-c2c(N)c3ccc(C(F)(F)F)nc3n(-c3ccc(Cl)cc3)c2=O)ccn1 [Example 56] | 17.8 nM |  | 1110 nM | 14.5 nM |
| Nc1c(-c2ccc3nccnc3n2)c(=O)n(-c2ccc(Cl)cc2)c2nc(C(F)(F)F)ccc12 [Example 67] | 16.3 nM |  | 750 nM | 18.1 nM |
| Nc1c(-c2ccc3nonc3c2)c(=O)n(-c2ccc(Cl)cc2)c2nc(C(F)(F)F)ccc12 [Example 69] |  | 663 nM |  | 16.6 nM |
